# Data from the supplement of paper PMC9663587.
# Compound: CN(C)C/C=C/C(=O)Nc1ccc(C(=O)N2CCC[C@@H](Nc3ncc(Cl)c(-c4c[nH]c5ccccc45)n3)C2)cc1 [THZ531]
# Assay: increase in dead-cell fraction, 72 h; higher = more death;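 further: breast cancer cell lines in 384-well plates, stained with Hoechst plus LIVE/DEAD far red dye and imaged, cells above an LDR intensity threshold counted dead, Hoechst-negative corpses included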
# Conditions: 0.0001 µM
row,Cell Line,increase in dead-cell fraction
1,T47D,-0.0029
2,UACC812,0.0045
3,UACC893,-0.0016
4,ZR751,-0.0027
5,ZR7530,0.0074

# Same assay, conditions: 0.0003162 µM
row,Cell Line,increase in dead-cell fraction
1,T47D,0.0085
2,UACC812,0.0009
3,UACC893,0.0009
4,ZR751,0.0028
5,ZR7530,0.0167

# Same assay, conditions: 0.001 µM
row,Cell Line,increase in dead-cell fraction
1,T47D,-0.0033
2,UACC812,0.0012
3,UACC893,0.0027
4,ZR751,-0.0004
5,ZR7530,0.0003

# Same assay, conditions: 0.003162 µM
row,Cell Line,increase in dead-cell fraction
1,T47D,0.0028
2,UACC812,-0.0009
3,UACC893,0.0008
4,ZR751,0.0013
5,ZR7530,0.0105

# Same assay, conditions: 0.01 µM
row,Cell Line,increase in dead-cell fraction
1,T47D,-0.0045
2,UACC812,0.0008
3,UACC893,-0.0019
4,ZR751,-0.0036
5,ZR7530,-0.0154

# Same assay, conditions: 0.03162 µM
row,Cell Line,increase in dead-cell fraction
1,T47D,0.0014
2,UACC812,-0.0001
3,UACC893,0.0067
4,ZR751,0.0009
5,ZR7530,-0.0168

# Same assay, conditions: 0.1 µM
row,Cell Line,increase in dead-cell fraction
1,T47D,0.01
2,UACC812,-0.0004
3,UACC893,0.0859
4,ZR751,0.0019
5,ZR7530,0.129

# Same assay, conditions: 0.3162 µM
row,Cell Line,increase in dead-cell fraction
1,T47D,0.035
2,UACC812,0.0004
3,UACC893,0.0937
4,ZR751,0.0013
5,ZR7530,0.234

# Same assay, conditions: 1 µM
row,Cell Line,increase in dead-cell fraction
1,T47D,0.0357
2,UACC812,0.0127
3,UACC893,0.109
4,ZR751,0.151
5,ZR7530,0.0722

# Compound: CN(C)C(=O)c1cc2cnc(Nc3ccc(N4CCNCC4)cn3)nc2n1C1CCCC1 [LEE011/Ribociclib]
# Assay: as above
# Conditions: 0.001 µM
row,Cell Line,increase in dead-cell fraction
1,T47D,0.0085
2,UACC812,0.0064
3,UACC893,-0.0008
4,ZR751,0.001
5,ZR7530,0.0122

# Same assay, conditions: 0.003162 µM
row,Cell Line,increase in dead-cell fraction
1,T47D,0.0069
2,UACC812,0.0022
3,UACC893,-0.0005
4,ZR751,0.0005
5,ZR7530,0.0504

# Same assay, conditions: 0.01 µM
row,Cell Line,increase in dead-cell fraction
1,T47D,0.0061
2,UACC812,0.0036
3,UACC893,0.0034
4,ZR751,0.0005
5,ZR7530,0.0152

# Same assay, conditions: 0.03162 µM
row,Cell Line,increase in dead-cell fraction
1,T47D,0.0139
2,UACC812,0.0049
3,UACC893,0.0015
4,ZR751,-0.0023
5,ZR7530,0.0426

# Same assay, conditions: 0.1 µM
row,Cell Line,increase in dead-cell fraction
1,T47D,0.0374
2,UACC812,0.0102
3,UACC893,0.0055
4,ZR751,0.0065
5,ZR7530,0.0177

# Same assay, conditions: 0.3162 µM
row,Cell Line,increase in dead-cell fraction
1,T47D,0.0392
2,UACC812,0.0156
3,UACC893,0.0017
4,ZR751,0.0036
5,ZR7530,0.0519

# Same assay, conditions: 1 µM
row,Cell Line,increase in dead-cell fraction
1,T47D,0.0267
2,UACC812,0.0075
3,UACC893,0.0062
4,ZR751,0.0073
5,ZR7530,0.0531

# Same assay, conditions: 3.162 µM
row,Cell Line,increase in dead-cell fraction
1,T47D,0.0405
2,UACC812,0.017
3,UACC893,0.0013
4,ZR751,0.0082
5,ZR7530,0.0382

# Same assay, conditions: 10 µM
row,Cell Line,increase in dead-cell fraction
1,T47D,0.0242
2,UACC812,0.0125
3,UACC893,0.0077
4,ZR751,0.0077
5,ZR7530,0.0703

# Compound: CC(=O)c1c(C)c2cnc(Nc3ccc(N4CCNCC4)cn3)nc2n(C2CCCC2)c1=O
# Assay: as above
# Conditions: 0.0003162 µM
row,Cell Line,increase in dead-cell fraction
1,T47D,0.0016
2,UACC812,-0.0049
3,UACC893,-0.0005
4,ZR751,-0.0023
5,ZR7530,0.0003

# Same assay, conditions: 0.001 µM
row,Cell Line,increase in dead-cell fraction
1,T47D,-0.001
2,UACC812,0.0002
3,UACC893,0.0008
4,ZR751,-0.0015
5,ZR7530,-0.0021

# Same assay, conditions: 0.003162 µM
row,Cell Line,increase in dead-cell fraction
1,T47D,0.0022
2,UACC812,-0.0042
3,UACC893,-0.0028
4,ZR751,-0.0035
5,ZR7530,0.0019

# Same assay, conditions: 0.01 µM
row,Cell Line,increase in dead-cell fraction
1,T47D,0.0006
2,UACC812,0.005
3,UACC893,0.0018
4,ZR751,0.0001
5,ZR7530,-0.0031

# Same assay, conditions: 0.03162 µM
row,Cell Line,increase in dead-cell fraction
1,T47D,0.0078
2,UACC812,0.0019
3,UACC893,0.006
4,ZR751,0.002
5,ZR7530,0.0102

# Same assay, conditions: 0.1 µM
row,Cell Line,increase in dead-cell fraction
1,T47D,0.0116
2,UACC812,0.0099
3,UACC893,0.0063
4,ZR751,-0.0025
5,ZR7530,0.0763

# Same assay, conditions: 0.3162 µM
row,Cell Line,increase in dead-cell fraction
1,T47D,0.0158
2,UACC812,0.0073
3,UACC893,0.0087
4,ZR751,0.0083
5,ZR7530,0.0662

# Same assay, conditions: 1 µM
row,Cell Line,increase in dead-cell fraction
1,T47D,0.0154
2,UACC812,0.0136
3,UACC893,0.0064
4,ZR751,0.008
5,ZR7530,0.0375

# Same assay, conditions: 3.162 µM
row,Cell Line,increase in dead-cell fraction
1,T47D,0.0097
2,UACC812,0.0146
3,UACC893,0.0017
4,ZR751,0.0189
5,ZR7530,0.0348
